Laboratory results reported in patent publication EP4745134A1 (Jiangsu Yahong Meditech Co., Ltd., priority 2023, dated 2025).
Where two headings read alike, the source gives them in different places.

Key:
PRMT5-MTA = PRMT5-MTA (Homo sapiens, UniProt O14744); assay: Enzymatic inhibitory activity against PRMT5-MTA (AlphaScreen); format: biochemical
Summary of the method: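 PRMT5/[…] (1 nM) was preincubated for 30 min at room temperature with 1 µM […] and 2.5 µM SAM, then exposed to compound (10-point, 3-fold from 1000 nM) for 15 min at 23 °C. Histone H4 substrate (5 nM) was added and reacted for 45 min at 23 °C. Symmetric dimethyl-R3 H4 was detected by AlphaScreen and IC50 calculated.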

HCT116 MTAP KO cells = assay: Inhibitory activity against cell proliferation (CellTiter Glo, 6 days), HCT116 MTAP KO; format: cell-based; details: for IC50: Homo sapiens, HCT-116, 144 h, HCT116 MTAP KO cells, 6 days, CellTiter Glo, read-out: HCT116 MTAP KO IC50; for Selectivity HCT 116-WT/ HCT116 MTAP KO: ratio of IC50 HCT116-WT / HCT116 MTAP KO
Summary of the method: (§1)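 Cells were seeded at 250 per well in McCoy's 5A with 10% FBS and left overnight at 37°C, 5% CO2. Compounds were added as 8-point, 4-fold dilutions from 10000 nM, with DMSO-only controls, for 6 days. IC50 values came from CellTiter Glo luminescence.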

HCT116-WT cells = assay: Inhibitory activity against cell proliferation (CellTiter Glo, 6 days), HCT116-WT; format: cell-based; details: 144 h, HCT116-WT cells, 6 days, CellTiter Glo; read-out: HCT116-WT IC50
Summary of the method: as §1

Sequence of PRMT5-MTA (O14744 whole entry): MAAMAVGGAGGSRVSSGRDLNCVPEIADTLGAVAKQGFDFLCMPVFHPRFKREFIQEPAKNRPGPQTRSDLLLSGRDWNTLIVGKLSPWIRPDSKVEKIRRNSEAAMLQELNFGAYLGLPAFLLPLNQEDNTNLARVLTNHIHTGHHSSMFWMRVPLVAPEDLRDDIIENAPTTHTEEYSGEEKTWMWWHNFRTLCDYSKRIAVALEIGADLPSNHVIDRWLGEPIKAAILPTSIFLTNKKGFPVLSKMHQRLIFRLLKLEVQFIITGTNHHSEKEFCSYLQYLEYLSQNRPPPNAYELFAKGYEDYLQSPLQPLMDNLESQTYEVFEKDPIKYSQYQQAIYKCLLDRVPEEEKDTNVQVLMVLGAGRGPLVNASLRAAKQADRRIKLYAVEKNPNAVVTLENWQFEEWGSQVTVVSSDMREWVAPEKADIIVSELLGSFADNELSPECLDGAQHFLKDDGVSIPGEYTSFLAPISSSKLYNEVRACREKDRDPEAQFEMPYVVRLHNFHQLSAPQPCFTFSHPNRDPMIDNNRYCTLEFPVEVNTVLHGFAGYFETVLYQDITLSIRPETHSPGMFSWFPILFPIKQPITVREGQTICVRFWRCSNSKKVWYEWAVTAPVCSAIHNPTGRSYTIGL
Sequence of PRMT5-MTA (Q9BQA1 whole entry partner): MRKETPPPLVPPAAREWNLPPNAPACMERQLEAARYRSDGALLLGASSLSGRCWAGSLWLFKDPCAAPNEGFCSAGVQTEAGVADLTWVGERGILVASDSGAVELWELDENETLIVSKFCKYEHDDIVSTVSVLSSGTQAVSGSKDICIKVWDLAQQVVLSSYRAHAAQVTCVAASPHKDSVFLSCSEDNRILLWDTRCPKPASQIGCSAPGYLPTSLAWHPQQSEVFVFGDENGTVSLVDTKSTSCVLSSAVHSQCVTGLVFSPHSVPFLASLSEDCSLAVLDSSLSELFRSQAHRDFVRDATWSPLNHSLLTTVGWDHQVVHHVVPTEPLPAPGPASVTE

SMILES | IC50 (PRMT5-MTA; read-out: IC50) | IC50 (HCT116 MTAP KO cells) | Selectivity HCT 116-WT/ HCT116 MTAP KO (HCT116 MTAP KO cells) | IC50 (HCT116-WT cells) | IC50 (PRMT5-MTA)
Cn1ncc2c(N)nc3cc(Cl)c(C(=O)N4CC5(CN4c4ncccc4F)CC(F)(F)C5)cc3c21 [Example 411, (4-amino-7-chloro-1-methyl-1H-pyrazolo [4,3-c]quinolin-8-yl)(2,2-difluoro-7-(3-fluoropyridin-2-yl)-6,7-diazaspiro[3.4]octan-6-yl)methanone] | 6.3 nM | 15 nM | 14.73 | 221 nM | –
Cn1ncc2c(N)nc3cc(Cl)c(C(=O)N4CC5(CN4c4ncc(Cl)cc4F)CC(F)(F)C5)cc3c21 [Example 412, (4-amino-7-chloro-1-methyl-1H-pyrazolo [4,3-c]quinolin-8-yl)(7-(5-chloro-3-fluoropyridin-2-yl)-2,2-difluoro-6,7-diazaspiro[3.4]octan-6-yl)methanone] | 6.2 nM | 10 nM | 17.90 | 179 nM | –
Cn1ncc2c(N)nc3cc(Cl)c(C(=O)N4CC5(CN4c4ncc(Br)cc4F)CC(F)(F)C5)cc3c21 [Example 413, (4-amino-7-chloro-1-methyl-1H-pyrazolo [4,3-c]quinolin-8-yl)(7-(5-bromo-3-fluor opyridin-2-yl)-2,2-difluoro-6,7-diazaspiro[3.4]octan-6-yl)methanone] | 4.3 nM | 26 nM | 15.00 | 390 nM | –
Cn1ncc2c(N)nc3cc(Cl)c(C(=O)N4CC5(CN4c4cccc(F)n4)CC(F)(F)C5)cc3c21 [Example 414, (4-amino-7-chloro-1-methyl-1H-pyrazolo [4,3-c]quinolin-8-yl)(2,2-difluoro-7-(6-fluoropyridin-2-yl)-6,7-diazaspiro[3.4]octan-6-yl)methanone] | 6.2 nM | 18 nM | 16.94 | 305 nM | –
CCC1CN(C(=O)c2cc3c(cc2C)nc(N)c2cnn(C)c23)N(c2ncccc2F)C1 (stereo not shown) [Example 415, (4-amino-1,7-dimethyl-1H-pyrazolo[4,3-c]quinolin-8-yl)(4-ethyl-2-(3-fluoropyridin-2-yl)pyrazolidin-1-yl)methanone] | 2.6 nM | 19 nM | 42.63 | 810 nM | –
COC1CN(C(=O)c2cc3c(cc2C)nc(N)c2cnn(C)c23)N(c2ncccc2F)C1 (stereo not shown) [Example 417, (4-amino-1,7-dimethyl-1H-pyrazolo[4,3-c]quinolin-8-yl)(2-(3-fluoropyridin-2-yl)-4-methoxypyrazolidin-1-yl)methanone] | 3.8 nM | 20 nM | 39.50 | 790 nM | –
Cn1ncc2c(N)nc3cc(Cl)c(C(=O)N4CC(C)(F)CN4c4ccccc4F)cc3c21 (stereo not shown) [Example 419] | – | 14 nM | 16.14 | 226 nM | 4.6 nM
Cn1ncc2c(N)nc3cc(Cl)c(C(=O)N4CC(C)(F)CN4c4ncc(Cl)cc4F)cc3c21 (stereo not shown) [Example 421, (4-amino-7-chloro-1-methyl-1H-pyrazolo [4,3-c]quinolin-8-yl)(2-(5-chloro-3-fluoropyridin-2-yl)-4-fluoro-4-methylpyrazolidin-1-yl)methanone] | 3.3 nM | 29 nM | 23.07 | 669 nM | –
Cc1cc2nc(N)c3cnn(C)c3c2cc1C(=O)N1CC(C)(F)CN1c1ncccc1F (stereo not shown) [Example 422, (4-amino-1,7-dimethyl-1H-pyrazolo[4,3-c]quinolin-8-yl)(4-fluoro-2-(3-fluoropyridin-2-yl)-4-methylpyrazolidin-1-yl)metha none] | 9.3 nM | 21 nM | 38.38 | 806 nM | –
CCC1(F)CN(C(=O)c2cc3c(cc2C)nc(N)c2cnn(C)c23)N(c2ncccc2F)C1 (stereo not shown) [Example 423, (4-amino-1,7-dimethyl-1H-pyrazolo[4,3-c]quinolin-8-yl)(4-ethyl-4-fluoro-2-(3-fluoropyridin-2-yl)pyrazolidin-1-yl)methanone] | 6.7 nM | 25 nM | 27.28 | 682 nM | –
